The values below come from ChEMBL document CHEMBL1201862, “PubChem BioAssay data set” (2004).

Among the test systems are ACHN; DU-145; EKVX; HOP-62; HOP-92; MDA-MB-435; NCI-H23; NCI-H522; OVCAR-3; SK-MEL-28; SK-MEL-2; SN12C; SNB-75; SR; SW-620; U-251; UACC-257; BT-549; OVCAR-4.
Common to all, as to assay: NCI anticancer screen, dose series, 48 h

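The compound was tested at five concentrations on cells cultured in 96-well plates, with a 48-hour exposure period. GI50 = concentration required for 50% inhibition of growth.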 Active and inactive are the calls of the source. Rule as the data show it: active = GI50 up to about 1.1 µM and inactive = higher.

Take `CSc1ccc(/C=C/c2ccnc3ccccc23)cc1`: the GI50 in the experiment on ACHN is 14.1 µM (inactive); in the experiment with DU-145 it was 13.9 µM (inactive); in the experiment on EKVX, 10.4 µM (inactive); with HOP-62, 20.3 µM (inactive); in the experiment with HOP-92, 16.4 µM (inactive); in the experiment with MDA-MB-435 it was 3.69 µM (inactive). Besides, the GI50 was 11.8 µM (inactive) in the experiment with NCI-H23; 12.5 µM (inactive) in the experiment on NCI-H522; 13.2 µM (inactive) in the experiment with OVCAR-3; 17.4 µM (inactive) in the experiment with SK-MEL-28; 16.1 µM (inactive) with SK-MEL-2; 15.5 µM (inactive) in the experiment on SN12C. Moreover, the GI50 was 20.4 µM (inactive) in the experiment with SNB-75; 5.64 µM (inactive) in the experiment on SR; 14 µM (inactive) with SW-620; 12.8 µM (inactive) in the experiment with U-251; 18.4 µM (inactive) with UACC-257.

Turning to `CN(C)c1ccc(/C=N/CC2CCCN3CCCCC23)cc1` (centres undefined), the GI50 in the experiment on ACHN, in the experiment on BT-549, in the experiment with DU-145, in the experiment with EKVX, in the experiment on HOP-62 and with NCI-H23 was > 100 µM (inactive) each time. Moreover, the GI50 in the experiment on NCI-H522, in the experiment with OVCAR-3, with SNB-75 and in the experiment with UACC-257 was > 100 µM (inactive) each time.

Regarding `COc1ccc2c(c1)CC[C@@H]1C2CC[C@]2(C)C(=C=CP(=O)(O)O)CCC12` (some centres undefined), the GI50 in the experiment on ACHN, in the experiment on DU-145, with EKVX, in the experiment on HOP-62, with HOP-92 and with MDA-MB-435 was > 100 µM (inactive) throughout. For the same compound, the GI50 in the experiment with NCI-H23, with NCI-H522, in the experiment with OVCAR-3, in the experiment with OVCAR-4, in the experiment with SK-MEL-28 and in the experiment with SK-MEL-2 was > 100 µM (inactive) in each case. Also, the GI50 with SN12C is > 100 µM (inactive); in the experiment on SNB-75 it was > 100 µM (inactive); in the experiment with SR, 99.5 µM (inactive); in the experiment with SW-620 it was > 100 µM (inactive); with U-251, > 100 µM (inactive); with UACC-257, > 100 µM (inactive).

`O=c1ccn(-c2ccccn2)c(=O)n1-c1ccccn1`: the GI50 with ACHN, with DU-145, in the experiment with EKVX, in the experiment on HOP-62, with HOP-92 and in the experiment with MDA-MB-435 was > 100 µM (inactive) throughout. For the same compound, the GI50 with NCI-H23, in the experiment with NCI-H522, in the experiment with OVCAR-3, with OVCAR-4, in the experiment with SK-MEL-28 and in the experiment with SK-MEL-2 was > 100 µM (inactive) each time. Besides, the GI50 in the experiment on SN12C, in the experiment with SNB-75, in the experiment on SW-620, in the experiment with U-251 and with UACC-257 was > 100 µM (inactive) in each case.

For the compound `CN(/N=C/C=N/N(C)C1=NCCCCN1)C1=NCCCCN1`, the GI50 with ACHN, with BT-549, in the experiment with EKVX, in the experiment on HOP-62, in the experiment with MDA-MB-435 and with NCI-H23 was > 100 µM (inactive) each time. Also, the GI50 with NCI-H522, in the experiment with OVCAR-3, in the experiment on OVCAR-4, with SK-MEL-28, in the experiment on SN12C and in the experiment with SNB-75 was > 100 µM (inactive) each time. In addition, the GI50 in the experiment on SR, in the experiment on SW-620, with U-251 and in the experiment with UACC-257 was > 100 µM (inactive) in each case.

As for `O=C1OC2(CCCCC2)C(Oc2ccc(Cl)cc2)=C1F`, the GI50 was 45.4 µM (inactive) with ACHN; 92.9 µM (inactive) in the experiment on DU-145; 38.2 µM (inactive) in the experiment on EKVX; > 100 µM (inactive) in the experiment with HOP-62; 20.4 µM (inactive) with HOP-92; 35.6 µM (inactive) with MDA-MB-435. The GI50 with NCI-H522 was 12.7 µM (inactive); in the experiment on OVCAR-3, 40.3 µM (inactive); with SK-MEL-28 it was 23.7 µM (inactive); with SK-MEL-2 it was 23.8 µM (inactive); in the experiment with SN12C it was 45.2 µM (inactive); in the experiment on SNB-75, 89.1 µM (inactive). The GI50 is 33.5 µM (inactive) in the experiment on SR, 23.6 µM (inactive) with SW-620, 61.8 µM (inactive) with U-251 and 24.3 µM (inactive) in the experiment on UACC-257.

For `CCOC(=O)c1nnsc1NN=C(C)C`, the GI50 in the experiment with BT-549, in the experiment on DU-145, in the experiment on EKVX, in the experiment on HOP-62, in the experiment on MDA-MB-435 and in the experiment with NCI-H23 was > 100 µM (inactive) in each case. The GI50 in the experiment with NCI-H522, in the experiment on OVCAR-3, in the experiment on OVCAR-4, with SK-MEL-28, in the experiment with SK-MEL-2 and with SN12C was > 100 µM (inactive) throughout. In addition, the GI50 with SNB-75, in the experiment with SW-620, in the experiment on U-251 and in the experiment on UACC-257 was > 100 µM (inactive) in each case.

In the case of `CCOC(=O)Cn1c(=O)c2nc(SC)sc2n(-c2ccccc2)c1=O`, the GI50 in the experiment on ACHN was > 100 µM (inactive); with BT-549, > 100 µM (inactive); in the experiment on EKVX, > 100 µM (inactive); in the experiment with HOP-62, > 100 µM (inactive); in the experiment on HOP-92, 33.7 µM (inactive); with NCI-H23, > 100 µM (inactive). For the same compound, the GI50 with SK-MEL-28, in the experiment on SK-MEL-2, in the experiment with SN12C, with SNB-75, in the experiment on SR and in the experiment with SW-620 was > 100 µM (inactive) in each case. The GI50 with U-251 and with UACC-257 was > 100 µM (inactive) each time.

On to `CCOC(=O)NC(C(C(=O)OCC)C(=O)OCC)(C(F)(F)F)C(F)(F)F`, for which the GI50 in the experiment on ACHN, in the experiment on DU-145, in the experiment on EKVX, with HOP-62, with HOP-92 and with MDA-MB-435 was > 100 µM (inactive) throughout. The GI50 in the experiment with NCI-H23, in the experiment with NCI-H522, in the experiment with OVCAR-3, with OVCAR-4, in the experiment with SK-MEL-28 and with SK-MEL-2 was > 100 µM (inactive) each time. The GI50 in the experiment with SN12C, in the experiment with SNB-75, in the experiment on SR, in the experiment with SW-620, in the experiment on U-251 and with UACC-257 was > 100 µM (inactive) each time.

`CCNCC(=O)Nc1ccc2c(c1)C(=O)c1ccc(NC(=O)CNCC)cc1C2=O`: the GI50 is 1.92 µM (inactive) in the experiment on ACHN; 2.69 µM (inactive) with DU-145; 4.93 µM (inactive) in the experiment with EKVX; 5.75 µM (inactive) in the experiment on HOP-62; 3.38 µM (inactive) in the experiment with HOP-92; 2.27 µM (inactive) in the experiment with MDA-MB-435. Besides, the GI50 is 3.43 µM (inactive) in the experiment on NCI-H23; 1.87 µM (inactive) in the experiment on NCI-H522; 2.59 µM (inactive) in the experiment on OVCAR-3; 0.514 µM (active) in the experiment on OVCAR-4; 5.61 µM (inactive) in the experiment with SK-MEL-28; 15.9 µM (inactive) in the experiment on SK-MEL-2. Moreover, the GI50 was 1.87 µM (inactive) in the experiment on SN12C; 1.41 µM (inactive) in the experiment on SNB-75; 2.99 µM (inactive) in the experiment on SW-620; 1.72 µM (inactive) with U-251; 5.98 µM (inactive) with UACC-257.

Turning to `CCOC(=O)c1nc2ccccc2nc1Oc1ccc(F)cc1`, the GI50 was 84.3 µM (inactive) in the experiment on ACHN; > 100 µM (inactive) in the experiment on BT-549; > 100 µM (inactive) in the experiment on DU-145; > 100 µM (inactive) in the experiment with EKVX; > 100 µM (inactive) in the experiment with HOP-62; 2.64 µM (inactive) in the experiment with HOP-92. Besides, the GI50 with MDA-MB-435 is > 100 µM (inactive); in the experiment with OVCAR-3, > 100 µM (inactive); with SK-MEL-28, > 100 µM (inactive); in the experiment with SK-MEL-2, > 100 µM (inactive); with SN12C, > 100 µM (inactive); in the experiment with SNB-75, 11.4 µM (inactive). Besides, the GI50 is > 100 µM (inactive) in the experiment on SW-620, 69.2 µM (inactive) with U-251 and > 100 µM (inactive) with UACC-257.

For `COC(=O)CCc1ccc2c(c1)CC1(Cc3ccccc3C1)C2`, the GI50 was > 100 µM (inactive) with ACHN; > 100 µM (inactive) in the experiment with EKVX; > 100 µM (inactive) with HOP-62; 97.5 µM (inactive) in the experiment with HOP-92; > 100 µM (inactive) in the experiment on MDA-MB-435; > 100 µM (inactive) with NCI-H23. The GI50 in the experiment with NCI-H522 is 74 µM (inactive); with OVCAR-3, > 100 µM (inactive); with OVCAR-4 it was > 100 µM (inactive); in the experiment with SK-MEL-2, 14.3 µM (inactive); with SN12C, > 100 µM (inactive); in the experiment with SNB-75 it was < 0.01 µM (active). Moreover, the GI50 in the experiment with U-251 and with UACC-257 was > 100 µM (inactive) each time.

For the compound `O=c1[nH]nc(Cc2ccccc2)n1/N=C/c1ccco1`, the GI50 in the experiment on ACHN, in the experiment with BT-549, with DU-145, with EKVX, in the experiment with HOP-62 and in the experiment on MDA-MB-435 was > 100 µM (inactive) each time. The GI50 in the experiment on NCI-H23, with OVCAR-3, in the experiment with OVCAR-4, with SK-MEL-28, in the experiment on SK-MEL-2 and in the experiment on SN12C was > 100 µM (inactive) throughout. The GI50 in the experiment with SNB-75, in the experiment on SW-620, with U-251 and in the experiment on UACC-257 was > 100 µM (inactive) throughout.
